Read-outs that look alike come from different tables or passages of the source.
Assays:
Format in all cases: in vivo
[1] = system: ragweed (common ragweed, Ambrosia elatior); assay: Test B pre-/postemergence plant response
Outline: (§1)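 Seeds in loam–sand blend given preemergence soil spray; separately, plants at one- to two-leaf stage (2–10 cm) sprayed postemergence, compounds in non-phytotoxic solvent with surfactant. Injury rated visually versus untreated controls after ~10 days in greenhouse, 0 (no effect) to 100 (complete control).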

kochia (Kochia scoparia) = assay: Test B pre-/postemergence plant response
Outline: as §1

[2] = system: Italian ryegrass (Lolium multiflorum); assay: Test B pre-/postemergence plant response
Outline: as §1

[3] = system: ducksalad (Heteranthera limosa); assay: Test C flooded paddy test plant response; details: Heteranthera limosa; Flood, 250 g ai/ha; scale of 0 to 100 where 0 is no effect and 100 is complete control; 13 to 15 days; read-out: Ducksalad plant response rating
Outline: (§2)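 Scale 0 (no effect) to 100 (complete control), assigned visually versus controls after 13–15 d greenhouse. Application: directly to paddy water, 3 cm flood depth kept constant, 2-leaf stage.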

[4] = system: small-flower umbrella sedge (Cyperus difformis); assay: Test C flooded paddy test plant response; details: Cyperus difformis; Flood, 250 g ai/ha; scale of 0 to 100 where 0 is no effect and 100 is complete control; 13 to 15 days; read-out: Sedge, Umbrella plant response rating
Outline: as §2

[5] = system: barnyardgrass (Echinochloa crus-galli); assay: Test C flooded paddy test plant response; details: Echinochloa crus-galli; Flood, 250 g ai/ha; scale of 0 to 100 where 0 is no effect and 100 is complete control; 13 to 15 days; read-out: Barnyardgrass plant response rating
Outline: as §2

rice (Oryza sativa) = assay: Test C flooded paddy test plant response; details: Oryza sativa; Flood, 250 g ai/ha; scale of 0 to 100 where 0 is no effect and 100 is complete control; 13 to 15 days; read-out: Rice plant response rating
Outline: as §2

[6] = system: velvetleaf (Abutilon theophrasti); assay: Test D pre-/postemergence plant response; details: Abutilon theophrasti; for pest or weed control at 16 g/ha: 16 g ai/ha; for pest or weed control at 31 g/ha: 31 g ai/ha; for pest or weed control at 62 g/ha: 62 g ai/ha; for pest or weed control at 125 g/ha: 125 g ai/ha
Outline: (§3)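 Preemergence: seeds in loam/sand blend treated with test chemicals in non-phytotoxic solvent with surfactant; postemergence: plants at 2–18 cm (1- to 4-leaf stage) in peat-based medium sprayed likewise. Greenhouse 13 to 15 days, then visual rating vs controls, 0 (no effect) to 100 (complete control).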

[7] = system: giant foxtail (Setaria faberii); assay: Test D pre-/postemergence plant response; details: Setaria faberi; for pest or weed control at 16 g/ha: 16 g ai/ha; for pest or weed control at 31 g/ha: 31 g ai/ha; for pest or weed control at 62 g/ha: 62 g ai/ha; for pest or weed control at 125 g/ha: 125 g ai/ha
Outline: as §3

[8] = system: johnsongrass (Sorghum halepense); assay: Test D pre-/postemergence plant response; details: Sorghum halepense; for pest or weed control at 16 g/ha: 16 g ai/ha; for pest or weed control at 31 g/ha: 31 g ai/ha; for pest or weed control at 62 g/ha: 62 g ai/ha; for pest or weed control at 125 g/ha: 125 g ai/ha
Outline: as §3

[9] = system: barnyardgrass (Echinochloa crus-galli); assay: Test D pre-/postemergence plant response; details: Echinochloa crus-galli; for pest or weed control at 16 g/ha: 16 g ai/ha; for pest or weed control at 16 g/ha / pest or weed control at 31 g/ha: scale 0 to 100 (0 no effect, 100 complete control); for pest or weed control at 31 g/ha: 31 g ai/ha; for pest or weed control at 62 g/ha: 62 g ai/ha; for pest or weed control at 125 g/ha: 125 g ai/ha
Outline: as §3

[10] = system: oilseed rape (Brassica napus); assay: Test D pre-/postemergence plant response; details: Brassica napus; for plant injury at 16 g/ha: 16 g ai/ha; for plant injury at 31 g/ha: 31 g ai/ha; for plant injury at 62 g/ha: 62 g ai/ha; for plant injury at 125 g/ha: 125 g ai/ha
Outline: as §3

[11] = system: pigweed (Amaranthus retroflexus); assay: Test D pre-/postemergence plant response; details: Amaranthus retroflexus; for pest or weed control at 16 g/ha: 16 g ai/ha; for pest or weed control at 31 g/ha: 31 g ai/ha; for pest or weed control at 62 g/ha: 62 g ai/ha; for pest or weed control at 125 g/ha: 125 g ai/ha
Outline: as §3

[12] = system: blackgrass (Alopecurus myosuroides); assay: Test D pre-/postemergence plant response; details: Alopecurus myosuroides; for pest or weed control at 16 g/ha: 16 g ai/ha; for pest or weed control at 31 g/ha: 31 g ai/ha; for pest or weed control at 62 g/ha: 62 g ai/ha; for pest or weed control at 125 g/ha: 125 g ai/ha
Outline: as §3

[13] = 125 g ai/ha, postemergence, 0 to 100 scale, 0 no effect, 100 complete control
[14] = Postemergence, 500 g ai/ha, 0 to 100 scale (0 no effect, 100 complete control)
[15] = Preemergence, 125 g ai/ha, 0 to 100 scale where 0 is no effect and 100 is complete control
[16] = Preemergence, 500 g ai/ha, 0 to 100 scale where 0 is no effect and 100 is complete control
[17] = post-emergence, Postemergence, scale 0 to 100 (0 no effect, 100 complete control), read-out: Velvetleaf plant response rating
[18] = post-emergence, Postemergence, scale 0 to 100, 0 no effect, 100 complete control, read-out: Plant response rating, Velvetleaf
[19] = pre-emergence, Preemergence, scale 0 to 100 (0 no effect, 100 complete control), read-out: Plant response rating, Velvetleaf
[20] = post-emergence, Postemergence, scale 0 to 100 (0 no effect, 100 complete control), read-out: Foxtail, Giant plant response rating
[21] = post-emergence, Postemergence, scale 0 to 100, 0 no effect, 100 complete control, read-out: Plant response rating, Foxtail, Giant
[22] = pre-emergence, Preemergence, scale 0 to 100 (0 no effect, 100 complete control), read-out: Plant response rating, Foxtail, Giant
[23] = post-emergence, Postemergence, scale 0 to 100 (0 no effect, 100 complete control), read-out: Johnsongrass plant response rating
[24] = post-emergence, Postemergence, scale 0 to 100, 0 no effect, 100 complete control, read-out: Plant response rating, Johnsongrass
[25] = pre-emergence, Preemergence, scale 0 to 100 (0 no effect, 100 complete control), read-out: Plant response rating, Johnsongrass
[26] = post-emergence, Postemergence, read-out: Barnyardgrass plant response rating
[27] = post-emergence, Postemergence, scale 0 to 100, 0 no effect, 100 complete control, read-out: Plant response rating, Barnyardgrass
[28] = pre-emergence, Preemergence, read-out: Plant response rating (scale 0 to 100), Barnyardgrass
[29] = pre-emergence, Preemergence, read-out: Plant response rating, Barnyardgrass
[30] = post-emergence, Postemergence, scale 0 to 100 (0 no effect, 100 complete control), read-out: Oilseed Rape plant response rating
[31] = post-emergence, Postemergence, scale 0 to 100, 0 no effect, 100 complete control, read-out: Plant response rating, Oilseed Rape
[32] = pre-emergence, Preemergence, scale 0 to 100 (0 no effect, 100 complete control), read-out: Plant response rating, Oilseed Rape
[33] = post-emergence, Postemergence, scale 0 to 100 (0 no effect, 100 complete control), read-out: Pigweed plant response rating
[34] = post-emergence, Postemergence, scale 0 to 100, 0 no effect, 100 complete control, read-out: Plant response rating, Pigweed
[35] = pre-emergence, Preemergence, scale 0 to 100 (0 no effect, 100 complete control), read-out: Plant response rating, Pigweed
[36] = post-emergence, Postemergence, scale 0 to 100 (0 no effect, 100 complete control), read-out: Blackgrass plant response rating
[37] = post-emergence, Postemergence, scale 0 to 100, 0 no effect, 100 complete control, read-out: Plant response rating, Blackgrass
[38] = pre-emergence, Preemergence, scale 0 to 100 (0 no effect, 100 complete control), read-out: Plant response rating, Blackgrass

FC(F)c1cc(-c2ccccc2Oc2ncc(Cl)cn2)on1 [Compound 53, 5-chloro-2-[2-[3-(difluoromethyl)-5-isoxazolyl]phenoxy]pyrimidine]
Plant response rating, Ragweed [1, 13]: 60 | Plant response rating, Ragweed [1, 14]: 90 | Plant response rating, Ragweed [1, 15]: 10 | Plant response rating, Ragweed [1, 16]: 50 | Plant response rating, Kochia (kochia (Kochia scoparia); [13]): 100 | Plant response rating, Kochia (kochia (Kochia scoparia); [14]): 100 | Plant response rating, Kochia (kochia (Kochia scoparia); [15]): 100 | Plant response rating, Kochia (kochia (Kochia scoparia); [16]): 100 | Plant response rating, Ryegrass, Italian [2, 13]: 80 | Plant response rating, Ryegrass, Italian [2, 14]: 100 | Plant response rating, Ryegrass, Italian [2, 15]: 10 | Plant response rating, Ryegrass, Italian [2, 16]: 40 | pest or weed control at 250 g/ha [3]: 80% | pest or weed control at 250 g/ha [4]: 75% | pest or weed control at 250 g/ha [5]: 20% | plant injury at 250 g/ha (rice (Oryza sativa)): 20% | pest or weed control at 16 g/ha [6, 17]: 55% | pest or weed control at 31 g/ha [6, 17]: 60% | pest or weed control at 62 g/ha [6, 18]: 70% | pest or weed control at 125 g/ha [6, 18]: 100% | pest or weed control at 125 g/ha ([6]; pre-emergence, Preemergence, read-out: Plant response rating (scale 0 to 100), Velvetleaf): 100% | pest or weed control at 16 g/ha [6, 19]: 100% | pest or weed control at 31 g/ha [6, 19]: 100% | pest or weed control at 62 g/ha [6, 19]: 100% | pest or weed control at 16 g/ha [7, 20]: 40% | pest or weed control at 31 g/ha [7, 20]: 20% | pest or weed control at 62 g/ha [7, 21]: 25% | pest or weed control at 125 g/ha [7, 21]: 30% | pest or weed control at 125 g/ha ([7]; pre-emergence, Preemergence, read-out: Plant response rating (scale 0 to 100), Foxtail, Giant): 100% | pest or weed control at 16 g/ha [7, 22]: 10% | pest or weed control at 31 g/ha [7, 22]: 85% | pest or weed control at 62 g/ha [7, 22]: 98% | pest or weed control at 16 g/ha [8, 23]: 0% | pest or weed control at 31 g/ha [8, 23]: 0% | pest or weed control at 62 g/ha [8, 24]: 5% | pest or weed control at 125 g/ha [8, 24]: 5% | pest or weed control at 125 g/ha ([8]; pre-emergence, Preemergence, read-out: Plant response rating (scale 0 to 100), Johnsongrass): 55% | pest or weed control at 16 g/ha [8, 25]: 0% | pest or weed control at 31 g/ha [8, 25]: 0% | pest or weed control at 62 g/ha [8, 25]: 35% | pest or weed control at 16 g/ha [9, 26]: 5% | pest or weed control at 31 g/ha [9, 26]: 10% | pest or weed control at 62 g/ha [9, 27]: 25% | pest or weed control at 125 g/ha [9, 27]: 35% | pest or weed control at 62 g/ha [9, 28]: 40% | pest or weed control at 125 g/ha [9, 28]: 95% | pest or weed control at 16 g/ha [9, 29]: 0% | pest or weed control at 31 g/ha [9, 29]: 5% | plant injury at 16 g/ha [10, 30]: 70% | plant injury at 31 g/ha [10, 30]: 80% | plant injury at 62 g/ha [10, 31]: 95% | plant injury at 125 g/ha [10, 31]: 85% | plant injury at 125 g/ha ([10]; pre-emergence, Preemergence, read-out: Plant response rating (scale 0 to 100), Oilseed Rape): 100% | plant injury at 16 g/ha [10, 32]: 80% | plant injury at 31 g/ha [10, 32]: 100% | plant injury at 62 g/ha [10, 32]: 100% | pest or weed control at 16 g/ha [11, 33]: 85% | pest or weed control at 31 g/ha [11, 33]: 90% | pest or weed control at 62 g/ha [11, 34]: 90% | pest or weed control at 125 g/ha [11, 34]: 100% | pest or weed control at 125 g/ha ([11]; pre-emergence, Preemergence, read-out: Plant response rating (scale 0 to 100), Pigweed): 100% | pest or weed control at 16 g/ha [11, 35]: 95% | pest or weed control at 31 g/ha [11, 35]: 100% | pest or weed control at 62 g/ha [11, 35]: 100% | pest or weed control at 16 g/ha [12, 36]: 5% | pest or weed control at 31 g/ha [12, 36]: 40% | pest or weed control at 62 g/ha [12, 37]: 20% | pest or weed control at 125 g/ha [12, 37]: 30% | pest or weed control at 125 g/ha ([12]; pre-emergence, Preemergence, read-out: Plant response rating (scale 0 to 100), Blackgrass): 95% | pest or weed control at 16 g/ha [12, 38]: 5% | pest or weed control at 31 g/ha [12, 38]: 25% | pest or weed control at 62 g/ha [12, 38]: 90%

Reference: patent publication US10131652B2, “Pyrimidinyloxy benzene derivatives as herbicides” (E. I. DU PONT DE NEMOURS AND COMPANY, priority 2014, dated 2018)
